From ChEMBL document CHEMBL1145588, “Design, synthesis, and structure-activity relationships of piperidine and dehydropiperidine carboxylic acids as novel, potent dual PPARalpha/gamma agonists” (Bioorg Med Chem Lett, 2008)

Experiments:
[1] = target: Peroxisome proliferator-activated receptor gamma (Homo sapiens) (UniProt P37231); test: Binding affinity at human PPARgamma by fluorescence polarization
[2] = target: T1, Peroxisome proliferator-activated receptor alpha (Homo sapiens, UniProt Q07869); test: Agonist activity at human PPARalpha expressed in HEK293 cells assessed as luciferase activity by GAL4 transactivation assay; type: functional, cell-based
T1 sequence (Q07869 whole entry): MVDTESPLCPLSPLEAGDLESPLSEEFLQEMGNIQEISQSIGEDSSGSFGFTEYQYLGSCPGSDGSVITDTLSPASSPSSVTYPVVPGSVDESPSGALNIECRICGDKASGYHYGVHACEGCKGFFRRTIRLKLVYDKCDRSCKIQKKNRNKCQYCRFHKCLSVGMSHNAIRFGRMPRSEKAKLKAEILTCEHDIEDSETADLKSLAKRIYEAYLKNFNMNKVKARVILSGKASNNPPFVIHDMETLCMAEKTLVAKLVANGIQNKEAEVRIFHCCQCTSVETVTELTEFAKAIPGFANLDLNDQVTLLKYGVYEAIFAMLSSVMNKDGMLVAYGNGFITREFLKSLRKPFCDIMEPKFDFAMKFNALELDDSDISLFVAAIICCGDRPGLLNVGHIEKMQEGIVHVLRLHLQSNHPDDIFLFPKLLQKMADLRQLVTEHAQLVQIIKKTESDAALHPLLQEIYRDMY

[3] = target: T2, Peroxisome proliferator-activated receptor gamma (Homo sapiens, UniProt P37231); test: Agonist activity at human PPARgamma expressed in HEK293 cells assessed as luciferase activity by GAL4 transactivation assay; type: functional, cell-based
T2 sequence (P37231 whole entry): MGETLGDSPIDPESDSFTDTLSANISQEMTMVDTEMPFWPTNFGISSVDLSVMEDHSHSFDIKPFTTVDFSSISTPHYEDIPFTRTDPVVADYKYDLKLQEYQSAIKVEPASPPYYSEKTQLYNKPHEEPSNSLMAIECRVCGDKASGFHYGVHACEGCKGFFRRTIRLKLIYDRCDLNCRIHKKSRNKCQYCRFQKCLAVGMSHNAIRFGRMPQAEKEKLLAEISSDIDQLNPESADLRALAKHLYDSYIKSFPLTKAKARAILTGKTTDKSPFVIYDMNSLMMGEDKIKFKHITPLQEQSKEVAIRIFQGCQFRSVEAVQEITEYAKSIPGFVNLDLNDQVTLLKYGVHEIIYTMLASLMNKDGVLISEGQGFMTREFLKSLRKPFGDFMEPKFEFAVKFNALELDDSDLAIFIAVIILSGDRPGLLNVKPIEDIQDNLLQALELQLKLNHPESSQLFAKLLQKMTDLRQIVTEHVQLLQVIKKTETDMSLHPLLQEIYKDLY

[4] = target: Peroxisome proliferator-activated receptor alpha (Homo sapiens) (UniProt Q07869); test: Binding affinity at human PPARalpha by fluorescence polarization

IC50 [1] [nM] | EC50 [2] [nM] | EC50 [3] [nM] | IC50 [4] [nM] | Compound
3090 | 580 | 490 | > 15000 | Cc1oc(-c2ccccc2)nc1CCOc1cccc(C2CN(C(=O)OCC(C)C)CCC2CC(=O)O)c1 (racemic)
287 | 23 | 14 | 1080 | Cc1oc(-c2ccccc2)nc1CCOc1cccc(CC2=CN(c3nccc(C(F)(F)F)n3)CCC2C(=O)O)c1 (racemic)
1250 | 5 | 257 | 215 | Cc1oc(-c2ccccc2)nc1CCOc1ccc(CC2CN(C(=O)OCC(C)C)CCC2C(=O)O)cc1 (racemic)
1380 | 89 | 644 | 1330 | Cc1oc(-c2ccccc2)nc1CCOc1cccc(CC2=C(C(=O)O)CCN(c3nccc(C(F)(F)F)n3)C2)c1
3040 | 28 | 1120 | 1170 | Cc1oc(-c2ccccc2)nc1CCOc1ccc(CC2=C(C(=O)O)CCN(C(=O)OCC(C)C)C2)cc1
> 27500 | > 7500 | > 7500 | > 27500 | Cc1oc(-c2ccccc2)nc1CCOc1cccc(C2=C(C(=O)O)CCN(Cc3ccccc3)C2)c1
– | 165 | 7 | – | Cc1oc(-c2ccccc2)nc1CCOc1ccc(C[C@@H]2CN(c3nccc(C(F)(F)F)n3)C[C@@H]2C(=O)O)cc1
4730 | 4920 | > 3500 | > 15000 | Cc1oc(-c2ccccc2)nc1CCOc1cccc(CC2=C(C(=O)O)CCN(C(=O)OCc3ccccc3)C2)c1
7400 | 5570 | 4650 | > 27300 | Cc1oc(-c2ccccc2)nc1CCOc1ccc(C2=C(C(=O)O)CCN(C(=O)OCC(C)C)C2)cc1
6030 | 18 | 1070 | 1370 | Cc1oc(-c2ccccc2)nc1CCOc1cccc(CC2CN(C(=O)OCC(C)C)CCC2C(=O)O)c1 (racemic)

Compound | IC50 [1] [nM] | EC50 [2] [nM] | EC50 [3] [nM] | IC50 [4] [nM]
Cc1oc(-c2ccccc2)nc1CCOc1cccc(C2=C(CC(=O)O)CCN(C(=O)Oc3ccccc3)C2)c1 | 34 | 4 | 46 | 16
CCCOC(=O)N1CCC(C(=O)O)=C(Cc2cccc(OCCc3nc(-c4ccccc4)oc3C)c2)C1 | – | – | 180 | –
Cc1oc(-c2ccccc2)nc1CCOc1ccc(CCC2CN(C(=O)OCC(C)C)CCC2C(=O)O)cc1 (racemic) | 450 | 44 | 263 | 711
Cc1oc(-c2ccccc2)nc1CCOc1cccc(C2=C(CC(=O)O)CCN(C(=O)OCC(C)C)C2)c1 | 49 | 6 | 18 | 130
Cc1oc(-c2ccccc2)nc1CCOc1cccc(CC2=CN(C(=O)OCc3ccccc3)CCC2C(=O)O)c1 (racemic) | 133 | 16 | 24 | 654
Cc1oc(-c2ccccc2)nc1CCOc1cccc(C2CN(C(=O)OCC(C)C)CCC2C(=O)O)c1 (racemic) | > 27300 | 209 | > 7500 | 7620
COc1ccc(OC(=O)N(CC(=O)O)Cc2ccc(OCCc3nc(-c4ccccc4)oc3C)cc2)cc1 [MURAGLITAZAR] | – | 1410 | – | –
Cc1oc(-c2ccccc2)nc1CCOc1cccc(C2CN(C(=O)Oc3ccccc3)CCC2CC(=O)O)c1 (racemic) | 7690 | 170 | 1290 | 8120
Cc1oc(-c2ccccc2)nc1CCOc1ccc(CCC2=C(C(=O)O)CCN(C(=O)OCC(C)C)C2)cc1 | 110 | 56 | 74 | 255
